Test results taken from patent publication US4657927A, “Malonato platinum compounds” (Research Corporation, priority 1983, dated 1987).

Assays:
Sarcoma 180 [1] = assay: Antitumor activity, solid sarcoma 180 tumor, T/C of tumor weights at day 10 (Table I); format: in vivo, female Swiss white mice; conditions: single i.p. injection day 1, slurry in H2O
Procedure: The compounds of the invention were tested for antitumor activity, i.e., for sensitivity to a planar dsp^2 platinum(II) coordination compound or an octahedral d^2 sp^3 platinum(IV) coordination compound using our standard screening tumor, solid sarcoma 180 tumor in female Swiss white mice, following standard protocols for this testing as set by the National Cancer Institute. (Cancer Chemotherapy Rep., 25 (1962)).
For these tests an S 180 tumor taken from a sacrificed mouse was disected free of superfluous tissue and cut under sterile conditions into approximately 10 milligram size pieces. These tissue pieces were then implanted by trocar in the left axillary region, subcutaneously, in new mice. The mice were, on the average, approximately four weeks old and weighed 18-20 grams. Taking day 0 as the day of implant, the animals were sacrificed on day 10. The tumors were excised and weighed and the ratio of the weights of the tumors in mice in the treated animals to the control set of animals was obtained. This ratio, multiplied by 100, is given as the T/C ratio in Table I.
For the first set of tests the coordination compound was freshly dissolved in sterile distilled water and injected intraperitoneally on day 1 into each of the test mice. The volume of the injection was usually 1/2 ml. In some cases, in order to get an active dose into the animal where the chemical was not soluble in this amount of solvent, a fine dispersion was prepared of the dose needed for the test. Thus, some of our test results were obtained on animals where a slurry of the compound was injected. These are so noted in Table I below. In addition, for some of the compounds, there was injected about 1 ml of solution, either in one single injection, or in 2 injections given a few hours apart of 1/2 ml each. These injections were initially given in 4 different dose levels for each new compound with 6 mice in each dose level. The tests covered a dose range from a low ineffective dose, to an upper dose level which produced some deaths within the time period of the experiment.

Sarcoma 180 [2] = assay: Large Sarcoma 180 regressions, injection on day 8 (Table II); format: in vivo, female Swiss white mice; conditions: single i.p. injection on day 8, H2O solution
Procedure: In addition to the day 1 injections described above, in a number of case injections were delayed until day 8 of tumor growth. In these cases the tumor was usually at least larger than 1/2 gm, as estimated by palpation. The animals were then injected and observed for a period of approximately 60 days. Activity was measured by the number of animals whose tumors had regressed to the vanishing point, while still allowing the animal to survive for this time period. Such test results are described in TABLE II below.

L1210 = assay: Confirmatory antitumor test at the National Cancer Institute, L1210 (Table IV); format: in vivo, Mice; conditions: daily injections days 1-9, i.p.
Excerpt: Samples of the malonato diammine and malonato ethylene diamine complexes of platinum(II) were submitted to the Drug Research and Development Branch of the National Cancer Institute for screening for antitumor activity against the L1210 tumor in mice. They confirm the activity of the compounds of the invention.

[3] = Hydrolysis by U.V./vis spectral and conductivity studies; format: physicochemical; conditions: recrystallization from boiling water with malonic acid
Excerpt: *U.V./via spectral and conductivity studies have shown that hydrolysis is negligible.

O=C(O)CC(=O)O.[NH2-].[NH2-].[Pt+2] [Malonatodiammineplatinum (II), Malonatodiammineplatinum(II)]
No. of Deaths (Sarcoma 180 [1]; 10 mg/kg): 0
T/C (Sarcoma 180 [1]; 10 mg/kg): 76
No. of Deaths (Sarcoma 180 [1]; 15 mg/kg): 0
T/C (Sarcoma 180 [1]; 15 mg/kg): 38
No. of Deaths (Sarcoma 180 [1]; 20 mg/kg): 0
T/C (Sarcoma 180 [1]; 20 mg/kg): 64
No. of Deaths (Sarcoma 180 [1]; 25 mg/kg): 0
T/C (Sarcoma 180 [1]; 25 mg/kg): 31
No. of Deaths (Sarcoma 180 [1]; 30 mg/kg): 1/6
T/C (Sarcoma 180 [1]; 30 mg/kg): 7
No. of Deaths (Sarcoma 180 [1]; 40 mg/kg): 6/6
No. of Deaths (Sarcoma 180 [1]; 50 mg/kg): 5/6
T/C (Sarcoma 180 [1]; 50 mg/kg): 1
No. of Deaths (Sarcoma 180 [1]; 60 mg/kg): 6/6
Deaths (Sarcoma 180 [2]; 14 mg/kg): 4
Total Number of Regressions (Sarcoma 180 [2]; 14 mg/kg): 2
Deaths (Sarcoma 180 [2]; 16 mg/kg): 3
Total Number of Regressions (Sarcoma 180 [2]; 16 mg/kg): 3
Deaths (Sarcoma 180 [2]; 18 mg/kg): 2
Total Number of Regressions (Sarcoma 180 [2]; 18 mg/kg): 4
Deaths (Sarcoma 180 [2]; 20 mg/kg): 1
Total Number of Regressions (Sarcoma 180 [2]; 20 mg/kg): 5
% Increase in Lifespan (L1210; 12.5 mg/kg): 115%
% Increase in Lifespan (L1210; 25 mg/kg): 133%
% Increase in Lifespan (L1210; 50 mg/kg): 163%
hydrolysis [3]: negligible
